Test results reported in article PMC8878452, “A Tale of Toxin Promiscuity: The Versatile Pharmacological Effects of Hcr 1b-2 Sea Anemone Peptide on Voltage-Gated Ion Channels” (Marine Drugs, 2022).
Bridges are numbered along the chain shown (N, C = ends). Where no end group is shown, it is not given here.

Key:
rKv1.1 = experiment: TEVC, Kv1.1 in Xenopus oocytes; format: cell-based, rat
Source text: For the expression of Kv channels (rKv1.1, rKv1.2, rKv1.3, rKv1.4, rK1.5, rKv1.6, hKv2.1, hKv3.1, rKv4.2, hKv7.1, hKv7.2/7.3, hKv7.4, KQT1 (from the roundworm Caenorhabditis elegans), hKv10.1 (hEAG1), hKv11.1 (hERG1), and Shaker, from Drosophila melanogaster), Nav channels (rNav1.1, rNav1.2, rNav1.3, rNav1.4, hNav1.5, mNav1.6, hNav1.7, hNav1.8, and BgNav (from the cockroach Blattella germanica), as well as the hβ1 and rβ1 subunits, and Cav channels (rCav3.1, hCav3.2, and rCav3.3) in Xenopus oocytes, the linearized plasmids were transcribed using the T7 or SP6 mMESSAGEmMACHINE transcription kit (Ambion, Austin, TX, USA). Mature female animals were purchased from Nasco (Fort Atkinson, WI, USA) and were housed in the Aquatic Facility (KU Leuven) in compliance with the regulations of the European Union (EU) concerning the welfare of laboratory animals as declared in Directive 2010/63/EU. The use of X. laevis oocytes was approved by the Animal Ethics Committee of the KU Leuven, with the license number P186/2019.
Stage V–VI oocytes were collected from anesthetized female X. laevis frog as previously described, with the frogs anesthetized by placement in a 0.1% tricaine solution (amino benzoic acid ethyl ester; Merck, Kenilworth, NJ, USA). Oocyte microinjection was performed using a microinjector (Drummond Scientifc®, Broomall, PA, USA), with a programmed cRNA injection volume of 4–50 nL, depending on channel subtype. The oocytes were incubated in ND96 solution (96 mM NaCl; 2 mM KCl; 1.8 mM CaCl2; 2 mM MgCl2, and 5 mM HEPES, pH 7.4), supplemented with 50 mg/L of gentamicin sulfate.
Electrophysiological measurements were performed at room temperature (18–22 °C) using the two-electrode voltage-clamp (TEVC) technique. Data were obtained using a GeneClamp 500 amplifier (Axon Instruments®, Burlingame, CA, USA) and Clampex9 software (Axon Instruments®, USA) was responsible for data acquisition and storage. Glass micropipettes were produced using glass capillaries (borosilicate WPI 1B120-6) and drawn in a WPI (World Precision Instruments®, Sarasota, FL, USA) manual stretcher. The bath and perfusion solutions were either the previously described ND96 (Nav and Kv channels) or calcium-free ND96 supplemented with 10 mM BaCl2 (Cav channels).
Whole-cell currents of oocytes were recorded 1 to 3 days after RNA injection. The current and voltage electrodes were filled with 3 M KCl, and their resistance was adjusted from 1.0 to 2.5 MΩ. […] The current–voltage relationships were determined by 50 ms step depolarizations between −90 and +65 mV using 5 or 10 mV increments. All electrophysiological data were analyzed following the procedures described by Peigneur et al., 2012 [20].
All values were expressed as means ± SEM. […]

ASIC = test system: ASIC; parameters: method as in 2 sources, one per row (each row's own in cited_ref): ref 17 = [17]; PMID 29684594; doi:10.1016/j.peptides.2018.04.013; 17. Kalina R. Gladkikh I. Dmitrenok P. Chernikov O. Koshelev S. Kvetkina A. Kozlov S. Kozlovskaya E. Monastyrnaya M. New APETx-like peptides from sea anemone Heteractis crispa modulate ASIC1a channels ||| ref 22 = [22]; PMID 15044953; doi:10.1038/sj.emboj.7600177; 22. Diochot S. Baron A. Rash L.D. Deval E. Escoubas P. Scarzello S. Salinas M. Lazdunski M. A new sea anemone peptide, APETx2, inhibits ASIC3, a major acid-sensitive channel in sensory neurons EMBO J.; settings: cited from earlier work

Sequence: GTPCKCHGYIGVYWFMLAGCPNGYGYNLSCPYFLGICCVKK (disulfide 4-37, 6-30, 20-38 (inferred)) [Hcr 1b-2]
- gating-modifier effect (voltage-current relationship), Kv1.1 (rKv1.1; 1 µM): non-significant gating-modifier effect
- Shift in Vhalf activation, Kv1.1 (rKv1.1; 1 µM vs control (ND96)): −4.8 mV
- effect on potassium current, Kv1.1 (rKv1.1; 1 µM, TEVC, ND96 pH 7.4, 18–22 °C, n ≥ 3): activation
- Vhalf activation, Kv1.1 (rKv1.1; 1 µM, control (ND96) −13.8 ± 0.3, mean ± SEM): −18.6 ± 0.3 mV
- ASIC inhibition (ASIC): ASIC inhibitors
